Source: US7906709B2, “Methods for breeding glyphosate resistant plants and compositions thereof” (priority 2006, dated 2011)
Marks after values point to notes of the source that are not given here.

How the values were obtained:
[1] = system: EPSPS from R and S biotypes of rigid ryegrass; experiment: EPSPS activity assay in the presence of glyphosate; format: biochemical, Lolium rigidum; settings: glyphosate from 5 to 5000 µM; crown tissue extract; R versus S biotype
Protocol: Extraction methods for EPSPS are modified from methods discussed in Boerboom et al., Weed Sci. 38:463-467 (1990). Crown tissue (0.5 gram fresh weight per sample) is harvested from California rigid ryegrass plants, frozen in liquid nitrogen, and grounded in a cold mortar with 150 mg polyvinylpolypyrrolidone (PVPP). The fine powder tissue is ground further in 0.5 ml extraction buffer (pH 7.5) containing 10 mM Trizma HC1, 1 mM ethylenediaminetetraacetic acid (EDTA), 10% (v/v) glycerol, 1 mg ml^−1 bovine serum albumin (BSA), 10 mM ascorbate, 1 mM benzamidine (BAM), and 5 mM dithiothreitol (DTT). The mixture is centrifuged at 15,000×g for 10 min, and the supernatant is desalted in 1.0 ml Sephadex G-50 column (^7 MICRO-SPINS® Shephadex G-50 column, Life Science Products Inc., Frederick, Colo.) and further centrifuged at 1,000×g for 3 min. Total protein in the supernatant is quantified spectrometrically at 595 nm followed the method discussed in Bradford, Anal. Biochem 72:248-254 (1976).
Assay of EPSPS activity is modified from methods discussed in Westwood and Weller, Weed Sci. 45:2-11 (1997). […]
Data from duplicate experiments with three replications of each treatment are analyzed by non-linear regression and fitted to a log-logistic model, […]

[2] = system: first generation of rigid ryegrass (Lolium rigidum) collected from California; experiment: Glyphosate resistance and sensitivity of the first generation; format: in vivo; settings: for Survivors: means of two experiments with 90 plants
Protocol: (§1) Rigid ryegrass (Lolium rigidum Gaud.) plants are collected from an almond orchard intensively treated with glyphosate since 1984. The collected plants are grown and seed produced in greenhouse. The resistant, intermediate and susceptible biotypes are selected in the first generation using 1.12, 2.24, and 3.36 kg ai ha^−1 rates of glyphosate. Further selection is continued with a high glyphosate rate (8.96 kg ai ha^−1) to select for the resistant and with the low rate (0.28 kg ai ha^−1) to select for the susceptible individuals. The resistant (R) and susceptible (S) biotypes used in this example are generated from the 5th and 4th cycle, respectively.
The collected plants produced seeds in the greenhouse after 8 to 10 weeks. The seeds are designated as the first generation, harvested and replanted for glyphosate resistant evaluation. The percentages of survivors are 89, 59, 45, and 9 percent following glyphosate application at 1×, 2×, 4× and 8×, respectively, is shown in Table 2.

[3] = system: S biotype of the California rigid ryegrass; experiment: Glyphosate drops on leaves, susceptible biotype; format: in vivo, Lolium rigidum; settings: three 2 µl drops on two leaves, corresponds to 1.12 kg ai ha^-1; one week after treatment; ROUNDUP ULTRA (isopropylamine salt)
Protocol: as §1
R and S biotypes of the California rigid ryegrass are grown individually to the fully vegetatively mature stage prior to seedhead formation. In one experiment, two fully mature leaves of each plant (one R and one S biotypes) are treated with three 2 μl drops of glyphosate (glyphosate isopropylamine salt, ROUNDUP ULTRA™, Monsanto Co., St. Louis, Mo.) solution applied to the upper leaf surface. This corresponds to a field rate of 1.12 kg ai ha^−1 glyphosate at a volume of 187 L ha^−1 and pressure of 172.5 kPa. One week after treatment, the S biotype is dead, but no injury is observed on the R biotype.

Wild-type Agrobacterium = experiment: Growth in M-9 media with glyphosate, wild-type; format: cell-based, Agrobacterium tumefaciens; settings: 48 hours
Protocol: The confirmed plasmid is transformed into Agrobacterium tumefaciens by “freeze thaw technique” using liquid nitrogen. The transformed Agrobacterium is grown in LB plated and maintained 28° C. for 72 h. Some colonies are grown in LB broth for 24 h and tested for the inserted EPSPS gene by PCR. The confirmed Agrobacterium is grown in 50 mL LB broth for 24 h. The Agrobacterium is centrifuged at 5000×g for 10 min, and the pellets are diluted with 2 mL 1.0 M CaCl2. At the same time, a wild-type Agrobacterium is also grown and extracted similar to the transformed Agrobacterium. The Agrobacterium solutions (10 μL) are grown in 50 mL media containing 1×M-9 salt media (SIGMA), 20 mM glucose, 2 mM MgSO4, and glyphosate at 0, 0.25, 0.5, 0.75, 1.0, 1.5, and 2 mM.
The growth (indicated by Optical Density 600 nm) is measured after 48 hours.

[4] = system: resistant (R) clone from F2bc1 hybrid; experiment: Glyphosate sensitivity of resistant clone from F2bc1; format: in vivo, Lolium perenne x Lolium rigidum
Protocol: The resistant plant from F2 population is backcrossed to the S parent (perennial ryegrass). Procedures for vernalization and pollination are similar to what is described above. Plants of the F1 hybrid from the backcross (F1bc1) are allowed to intercross to generate F2 (F2bc1). The inheritance of glyphosate resistance traits is evaluated in the F2bc1 population. Glyphosate sensitivity is evaluated at 0.25× and 8× glyphosate. Data collection and genetic evaluation are similar to the procedures as described above.
Backcrossing between the resistant plants from F2 to the sensitive parent of perennial ryegrass is designed to re-capture agronomic characteristics of sensitive parents (perennial ryegrass). The level of glyphosate resistance in the F1bc1 population appears to be similar to the previous results in F1 population. Distribution of glyphosate sensitivity level in the F2bc1 population is illustrated in FIG. 5. A sample of the resistant plants from the F2bc1 is evaluated for the level of sensitivity at 0, 1, 2, 4, 6, 8, 10, 12, and 14× glyphosate and data is illustrated in FIG. 6. No injury is observed up to 6× glyphosate, slight injury is observed at 8× and 10×, and severe injury is observed at 12× glyphosate.

[5] = glyphosate 1.12 kg ai ha^-1 (1x)
[6] = glyphosate 2.24 kg ai ha^-1 (2x)
[7] = glyphosate 4.48 kg ai ha^-1 (4x)
[8] = glyphosate 8.96 kg ai ha^-1 (8x)

O=C(O)CNCP(=O)(O)O [glyphosate, N-(phosphonomethyl) glycine]
inhibition of EPSPS activity [1]: significantly inhibited more in S than in R
Dead plants [2, 5]: 11^c percent
Survivors [2, 5]: 89%
Dead plants [2, 6]: 41%
Survivors [2, 6]: 59%
Dead plants [2, 7]: 55%
Survivors [2, 7]: 45%
Dead plants [2, 8]: 91%
Survivors [2, 8]: 9%
Survivors ([2]; glyphosate 8.96 kg ai ha^-1 (8x), listed as Glyphosate): 9^b percent
Plant injury [3]: dead
Growth, OD 600 nm (Wild-type Agrobacterium; glyphosate 0.25 mM): 0.236
Growth, Percent (Wild-type Agrobacterium; glyphosate 0.25 mM): 37%
Growth, OD 600 nm (Wild-type Agrobacterium; glyphosate 0.50 mM): 0.005
Growth, Percent (Wild-type Agrobacterium; glyphosate 0.50 mM): 0.8%
Growth, OD 600 nm (Wild-type Agrobacterium; glyphosate 0.75 mM): 0.005
Growth, Percent (Wild-type Agrobacterium; glyphosate 0.75 mM): 0.8%
Growth, OD 600 nm (Wild-type Agrobacterium; glyphosate 1.00 mM): 0.004
Growth, Percent (Wild-type Agrobacterium; glyphosate 1.00 mM): 0.8%
Growth, OD 600 nm (Wild-type Agrobacterium; glyphosate 1.50 mM): 0.004
Growth, Percent (Wild-type Agrobacterium; glyphosate 1.50 mM): 0.8%
Growth, OD 600 nm (Wild-type Agrobacterium; glyphosate 2.00 mM): 0.004
Growth, Percent (Wild-type Agrobacterium; glyphosate 2.00 mM): 0.8%
injury ([4]; 8× and 10× glyphosate): slight injury
injury ([4]; 12× glyphosate): severe injury
injury ([4]; up to 6× glyphosate): No injury
